Legend:
[1] = tested on: cells containing alveolar macrophages; assay: Stimulation with LPS and 25-HC of bronchoalveolar lavage fluid cells from a cigarette smoke-exposed mouse; cytokine mRNA by real-time quantitative PCR; format: cell-based; details: co-stimulation with LPS (10 ng/ml) and 25-HC (0.3 to 3 μg/ml), 24 hours, compared with LPS alone; FIG. 6
Procedure: To examine the involvement of CH25H on the morbid state of COPD, the effect of added 25-hydroxycholesterol (25-HC), i.e. CH25H reaction product, on alveolar macrophages was examined. According to the method described in EXAMPLE 4, a mouse was exposed to cigarette smoke for 4 days, and on the next day of the final exposure, the bronchoalveolar lavage fluid was recovered according to the method described in EXAMPLE 4, and cells containing alveolar macrophages were seeded on a 96-well plate at a density of 1×10^6 cells/ml. On the next day, the cells were stimulated with LPS (10 ng/ml) and 25-HC (0.3 to 3 μg/ml) and cultured for 24 hours. According to the method described in EXAMPLE 1, total RNA was then recovered from the cells according to the attached manual, and the amounts of mRNAs of CXCL2 and IL-1β, that is, inflammatory cytokines, were quantified by the real-time quantitative PCR method. As each probe, the corresponding probe was selected from Assays on demand gene expression product (Applied Biosystems) and used. The expression level of each gene was calculated as relative expression value to rodent GAPDH by the comparative Ct value method.

[2] = tested on: C57BL/6 mice; assay: Production of cytokines in bronchoalveolar lavage fluid after intratracheal administration of 25-HC (ELISA); format: in vivo; details: 50 μg/50 μl/mouse, 3 hours after administration, vs control, FIG. 7
Procedure: To examine whether production of cytokines by 25-HC is observed in vivo as well, the effect of 25-HC administered to the lung of a mouse was examined.
25-HC or a control (physiological saline containing a solvent at the same concentration as used in dissolving 25-HC (10% aqueous ethanol)) was intratracheally administered at a dose of 50 μg/50 μl/mouse to C57BL/6 mice (6-week-old, male) under anesthesia with halothane, and 3, 6, 12, 24 and 48 hours after administration, the bronchoalveolar lavage fluid was recovered, and the amounts of KC and MIP-2, that is, inflammatory cytokines in the lavage fluid were measured by a commercial ELISA kit.

[3] = tested on: C57BL/6 mice; assay: Neutrophil infiltration in bronchoalveolar lavage fluid after intratracheal administration of hydroxylated cholesterols; format: in vivo; details: 50 μg/50 μl/mouse/day for 4 days, lavage on the next day, FIG. 8
Procedure: To examine whether the airway inflammatory reaction by 25-HC is observed in vivo as well, the effect of 25-HC administered to the lung of a mouse was examined.
25-HC or a control (physiological saline containing a solvent at the same concentration as used in dissolving 25-HC (9.5% aqueous ethanol)), or 4β-hydroxycholesterol (4β-HC), was intratracheally administered for 4 days at a dose of 50 μg/50 μl/mouse/day to C57BL/6 mice (7-week-old, male) under anesthesia with ketamine and xylazine, and on the next day, the bronchoalveolar lavage fluid was recovered, and the number of inflammatory cells was determined.

Compound: C[C@H](CCCC(C)(C)O)[C@H]1CC[C@H]2[C@@H]3CC=C4C[C@@H](O)CC[C@]4(C)[C@H]3CC[C@]12C [25-HC, 25-hydroxycholesterol]
- expression of CXCL2 (mRNA, relative to rodent GAPDH) [1]: increased depending on the concentration of 25HC
- expression of IL-1β (mRNA, relative to rodent GAPDH) [1]: increased depending on the concentration of 25HC
- amount of KC in bronchoalveolar lavage fluid [2]: significant increase
- amount of MIP-2 in bronchoalveolar lavage fluid [2]: significant increase
- neutrophil infiltration (number of neutrophils in bronchoalveolar lavage fluid) [3]: significant neutrophil infiltration was recognized
